Experimental data taken from paper PMC12006171, “Marsupial cathelicidins: characterization, antimicrobial activity and evolution in this unique mammalian lineage” (Frontiers in Immunology, 2025).
In brackets after ≈: the same amount, converted by molar mass. Read-outs that look alike come from different tables or passages of the source. Where a SMILES comes first, the peptide text is derived from it.

Assays:
[1] = system: Escherichia coli ATCC 25922; assay: microbe, parasite or virus in culture; type: cell-based
Method in brief: (§1)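 Broth microdilution per CLSI M07-A/M26A: DMSO-solubilized cathelicidin mature peptides at final 64-0.125μg/mL in Mueller Hinton broth (with or without 10% lysed horse blood, with or without calcium/magnesium), final inoculum 5 x 10^5 CFU/mL, 35°C for 20–24 hours. MIC = lowest concentration preventing visible growth.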

[2] = system: Escherichia coli clinical isolate - animal; assay: microbe, parasite or virus in culture; type: cell-based
Method in brief: as §1

[3] = system: Pseudomonas aeruginosa ATCC 27853; assay: microbe, parasite or virus in culture; type: cell-based; details: ATCC 27853; read-out: MIC P. aeruginosa ATCC
Method in brief: as §1

[4] = system: Pseudomonas aeruginosa clinical isolate - animal; assay: microbe, parasite or virus in culture; type: cell-based; details: clinical isolate - animal; read-out: MIC P. aeruginosa
Method in brief: as §1

[5] = system: Staphylococcus aureus ATCC 29213; assay: microbe, parasite or virus in culture; type: cell-based
Method in brief: as §1

[6] = system: Staphylococcus aureus clinical isolate - animal; assay: microbe, parasite or virus in culture; type: cell-based
Method in brief: as §1

[7] = system: Streptococcus agalactiae ATCC 12386; assay: microbe, parasite or virus in culture; type: cell-based; details: ATCC 12386; read-out: MIC S. agalactiae ATCC
Method in brief: (§2)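 Broth microdilution per CLSI M07-A/M26A; cathelicidin peptides tested at final 64-0.125μg/mL, inoculum 5 x 10^5 CFU/mL, 35°C for 20–24 hours. Bacteria in MHB (±10% lysed horse blood, ±Ca/Mg), yeasts in RPMI-1640 MOPS. MIC = lowest concentration preventing visible growth.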

[8] = system: Streptococcus agalactiae Clinical isolate - animal; assay: microbe, parasite or virus in culture; type: cell-based; details: clinical isolate - animal
Method in brief: as §2

[9] = system: Streptococcus pneumoniae ATCC 49619; assay: microbe, parasite or virus in culture; type: cell-based; details: ATCC 49619; read-out: MIC S. pneumoniae ATCC
Method in brief: as §2

[10] = system: Staphylococcus aureus clinical isolate – animal, methicillin-resistant (MRSA); type: cell-based; details: clinical isolate – animal, methicillin-resistant
Method in brief: as §2

[11] = system: Staphylococcus aureus clinical isolate – animal, penicillin-resistant (PRSA); type: cell-based; details: clinical isolate – animal, penicillin-resistant (PRSA)
Method in brief: as §2

S. aureus ATCC 29213 = assay: Killing kinetics (time kill assay); type: cell-based, Staphylococcus aureus; details: MHB, 35°C, sampled 1-24 hours, n = 2
Description: The killing kinetics assay was conducted using mid-logarithmic phase cultures of E. coli ATCC 25922 and S. aureus ATCC 29213 in MHB. Cultures were adjusted to a 0.5 McFarland standard, diluted in MHB, and then 100µL was added to each culture tube containing 10mL pre-warmed MHB to give a final inoculum concentration of 5 x 10^5 CFU/mL. A sterility control of 100uL MHB, growth control (no cathelicidin), and vehicle control (DMSO) were also included. Furthermore, 10uL was immediately removed from the growth control tube, diluted 1/1000 in saline and 100µL plated onto MHA in duplicate to confirm inoculum density. To establish colony counts from 0 hours of cathelicidin treatment, 200µL was removed from each culture tube and serially diluted ten-fold in saline from 10^0 to […] in a total volume of 200µL. Then, 10µL of each dilution was spotted onto MHA in duplicate, which were incubated at 35°C for 24 hours.
All culture tubes were then incubated at 35°C static. At 1, 2, 4, 6, 8, 10, 12, and 24 hours post-cathelicidin treatment, 200µL was removed from each culture tube for dilution and plated on MHA as described above. […] Counts of duplicates were averaged, and the log10 CFU/mL graphed against time. This was used as input for one-way ANOVA (p < 0.05) followed by Dunnett’s post hoc test.

[12] = system: six bacteria (S. aureus, E. coli, P. aeruginosa; ATCC and clinical isolate); type: cell-based; details: synthesized mature peptide; antimicrobial screening Phase I; Y/N summary over bacteria tested, broth microdilution
Method in brief: as §1

[13] = system: three fungi (Candida krusei, Candida parapsilosis, Candida albicans); assay: Antifungal screening, summary over the panel of fungi (broth microdilution); type: cell-based; details: synthesized mature peptide; antimicrobial screening Phase I; Y/N summary over fungi tested, broth microdilution
Description: Antimicrobial testing of 78 cathelicidin MPs was performed in two phases as outlined in Figure 1 . In phase I, 40 peptides (27 extant and 13 ancestral) were selected for testing based on rank (outlined above) and similarity to published marsupial cathelicidins with known antimicrobial activity ([33], [41]–[43]). These peptides were tested against nine bacteria (Staphylococcus aureus ATCC 29213 and clinical isolate, Escherichia coli ATCC 25922 and clinical isolate, Pseudomonas aeruginosa ATCC 27853 and clinical isolate, Streptococcus agalactiae ATCC 12386 and clinical isolate, Streptococcus pneumoniae ATCC 49619) and three fungi (Candida krusei ATCC 6258, Candida parapsilosis ATCC 22019, and Candida albicans clinical isolate). Details regarding these strains are available in Supplementary Table 4 . The antimicrobial activity of cathelicidins was determined as the minimum inhibitory concentration (MIC), which was the lowest concentration of cathelicidin that prevented visible bacterial or fungal growth, relative to the negative control. […] Minimum bactericidal concentration (MBC) and/or minimum fungicidal concentration (MFC) was conducted to determine microbicidal versus static action. Activity against S. aureus ATCC, E. coli ATCC, and Pseudomonas aeruginosa ATCC 27853 was examined in the presence of divalent cations to determine the impact of inhibitors.
Antimicrobial activity was determined using a broth microdilution susceptibility assay in 96 well polypropylene plates according to Clinical Laboratory Standards Institute guidelines M07-A and M26A as described previously ([33], [42], [43]). The bacterial and fungal isolates from humans and animals used in this study are outlined in Supplementary Table 4 . Only yeasts were included in the panel of fungi as they have been used in the susceptibility testing of eutherian ([3], [81]–[83]) and other marsupial cathelicidins previously ([33], [42], [43]). Cathelicidin mature peptides were solubilized in DMSO and serially diluted in duplicate from 128-0.25μg/mL in a final volume of 100µL. For bacteria, cathelicidins were diluted in Mueller Hinton Broth (MHB) with or without 10% lysed horse blood, and with (MH II B) or without (MHB) calcium and magnesium cations. For fungi, cathelicidins were diluted in Roswell Park Memorial Institute medium (RPMI)-1640 MOPS. Ampicillin or tetracycline were included as a positive control for Gram-positive and -negative bacteria respectively, while amphotericin B was used for fungi. A media-only negative control and growth control (no cathelicidin) were also included on each plate. Bacteria were sub-cultured on Muller Hinton agar (MHA) or sheep blood agar (BA), and fungi on Sabouraud dextrose agar (SAB), 20–24 hours prior to the test. Colonies were suspended in saline, the concentration adjusted to a 0.5 McFarland standard, and then diluted in media to a concentration of 1.0 x 10^6 cells/mL. Then, 100μL was added to each well of the cathelicidin dilution plate, giving a final inoculum density of 5 x 10^5 CFU/mL and cathelicidin concentration of 64-0.125μg/mL. Colony counts were performed on MHA/BA/SAB to confirm inoculum density. All plates were incubated at 35°C for 20–24 hours, depending on the strain.
Colonies were counted and compared to the colony count of the starting inoculum.

[14] = clinical isolate, MHB without cations, 5 x 10^5 CFU/mL, 35°C 20–24 hours, duplicate
[15] = clinical isolate, superscript value, cation-adjusted Mueller Hinton broth
[16] = clinical isolate, value in brackets, 99.9% reduction in CFU/mL
[17] = clinical isolate - animal, read-out: MIC S. aureus
[18] = clinical isolate - animal, read-out: MIC in the presence of cations S. aureus

Row | MIC in the presence of cations E. coli ([2]; clinical isolate - animal) | MIC [3] [µM] | MIC [4] [µM] | MIC [6, 17] [µM] | MIC [6, 18] [µM] | MIC [7] [µM] | MIC [9] [µM] | MIC MRSA [10] [µM] | MIC PRSA [11] [µM] | SMILES | MBC E. coli ATCC ([1]; ATCC 25922) | MBC E. coli ([2]; clinical isolate - animal) | MBC S. aureus ([6]; clinical isolate - animal) [µM] | MBC MRSA [10] [µM] | MBC PRSA [11] [µM] | Number of hours to cause a significant reduction in log CFU/mL of S. aureus ATCC (p < 0.05) (S. aureus ATCC 29213; 0.5x MIC) [hours] | Number of hours to cause a significant reduction in log CFU/mL of S. aureus ATCC (p < 0.05) (S. aureus ATCC 29213; 2x MIC) [hours] | Number of hours to cause a significant reduction in log CFU/mL of S. aureus ATCC (p < 0.05) (S. aureus ATCC 29213; MIC) [hours] | further results
1 | 18.6 µM | >18.6 | >18.6 | 9.3 (≈ 31.9 µg/mL) | 4.6 | >18.6 | >18.6 | 9.3 (≈ 31.9 µg/mL) | 4.6 (≈ 15.8 µg/mL) | CC[C@H](C)[C@H](NC(=O)[C@H](CCCCN)NC(=O)CNC(=O)[C@H](CC(C)C)NC(=O)CNC(=O)[C@H](CCC(N)=O)NC(=O)CNC(=O)[C@H](CC(C)C)NC(=O)[C@@H]1CCCN1C(=O)[C@H](CCCCN)NC(=O)[C@H](CCSC)NC(=O)[C@H](CC(C)C)NC(=O)[C@H](CCCCN)NC(=O)[C@H](CCCCN)NC(=O)[C@H](CCCCN)NC(=O)CNC(=O)CNC(=O)[C@H](CCCNC(=N)N)NC(=O)[C@@H](N)CCCCN)C(=O)N[C@@H](CC(C)C)C(=O)N[C@@H](CCCCN)C(=O)N[C@@H](Cc1c[nH]cn1)C(=O)N[C@@H](Cc1ccccc1)C(=O)N[C@@H](CC(N)=O)C(=O)N[C@H](C(=O)N[C@@H](CC(=O)O)C(=O)N[C@@H](Cc1ccccc1)C(=O)N[C@@H](CS)C(=O)NCC(=O)N[C@@H](CC(N)=O)C(=O)N[C@@H](CS)C(=O)O)[C@@H](C)CC [MAP11] (H-KRGGKKKLMKPLGQGLGKILKHFNIDFCGNC-OH; N-terminus and C-terminus assumed) | 18.6 µM | 9.3 µM | 9.3 | 9.3 (≈ 31.9 µg/mL) | 4.6 (≈ 15.8 µg/mL) | 4 | 2 | 4 | MIC ([1]; ATCC 25922, read-out: MIC E. coli ATCC): 9.3 µM (≈ 31.9 µg/mL); MIC ([1]; ATCC 25922, read-out: MIC in the presence of cations E. coli ATCC): 9.3 µM; MIC E. coli ATCC ([1]; MHB without cations, 5 x 10^5 CFU/mL, 35°C 20–24 hours, duplicate): 32 µg/mL (≈ 9.33 µM); MIC in the presence of cations E. coli ATCC ([1]; superscript value, cation-adjusted Mueller Hinton broth): 32 µg/mL; MBC E. coli ATCC ([1]; value in brackets, 99.9% reduction in CFU/mL): 64 µg/mL; MIC ([2]; clinical isolate - animal): 9.3 µM (≈ 31.9 µg/mL); MIC E. coli [2, 14]: 32 µg/mL (≈ 9.33 µM); MIC in the presence of cations E. coli [2, 15]: 64 µg/mL; MBC E. coli [2, 16]: 32 µg/mL; MIC S. aureus ATCC ([5]; ATCC 29213): 16 µg/mL (≈ 4.66 µM); MIC in the presence of cations S. aureus ATCC ([5]; superscript value, cation-adjusted Mueller Hinton broth (calcium and magnesium)): 32 µg/mL; MBC S. aureus ATCC ([5]; value in brackets, 99.9% reduction in CFU/mL relative to starting inoculum): 32 µg/mL; MIC S. aureus [6, 14]: 32 µg/mL (≈ 9.33 µM); MIC in the presence of cations S. aureus [6, 15]: 16 µg/mL; MBC S. aureus [6, 16]: 32 µg/mL; MIC ([8]; read-out: MIC S. agalactiae): >18.6 µM; Antibacterial (MIC <64ug/mL) [12]: Y (Antibacterial (MIC <64ug/mL)); Antifungal (MIC <64ug/mL) [13]: N (Antifungal (MIC <64ug/mL))
2 | 16.6 (16.6)^>16.6 µM | >16.6 | >16.6 | 2 (≈ 7.68 µg/mL) | 2 | >16.6 | >16.6 | 2 (≈ 7.68 µg/mL) | 1 (≈ 3.84 µg/mL) | CC[C@H](C)[C@H](NC(=O)[C@H](CCCCN)NC(=O)[C@H](CC(N)=O)NC(=O)[C@H](CC(C)C)NC(=O)CNC(=O)[C@H](CCC(N)=O)NC(=O)CNC(=O)[C@H](CC(C)C)NC(=O)[C@H](CCCCN)NC(=O)[C@H](CCSC)NC(=O)[C@H](Cc1c[nH]c2ccccc12)NC(=O)CNC(=O)[C@H](CCCCN)NC(=O)[C@H](CCCCN)NC(=O)[C@H](CCC(=O)O)NC(=O)[C@H](Cc1c[nH]cn1)NC(=O)[C@H](CCCNC(=N)N)NC(=O)[C@H](CCCCN)NC(=O)[C@@H](NC(=O)[C@@H](N)CCCCN)[C@@H](C)CC)C(=O)N[C@@H](CC(C)C)C(=O)N[C@@H](CCCCN)C(=O)N[C@@H](Cc1c[nH]cn1)C(=O)N[C@@H](Cc1ccccc1)C(=O)N[C@@H](CC(N)=O)C(=O)N[C@H](C(=O)N[C@@H](CC(=O)O)C(=O)N[C@@H](Cc1ccccc1)C(=O)N[C@@H](CS)C(=O)N[C@@H](CC(C)C)C(=O)N[C@@H](CC(N)=O)C(=O)N[C@@H](CS)C(=O)O)[C@@H](C)CC [LalaCath3] (H-KIKRHEKKGWMKLGQGLNKILKHFNIDFCLNC-OH; N-terminus and C-terminus assumed) | 8.3 (8.3)^8.3 µM | 16.6 (16.6)^>16.6 µM | 4.1 | 4.1 (≈ 15.8 µg/mL) | 2 (≈ 7.68 µg/mL) | 4 | 2 | 4 | MIC E. coli ATCC ([1]; ATCC 25922): 8.3 (8.3)^8.3 µM; MIC in the presence of cations E. coli ATCC ([1]; ATCC 25922): 8.3 (8.3)^8.3 µM; MIC E. coli ([2]; clinical isolate - animal): 16.6 (16.6)^>16.6 µM; MBC S. aureus ATCC ([5]; ATCC 29213): 4.1 µM; MIC ([5]; ATCC 29213, read-out: MIC S. aureus ATCC): 2 µM (≈ 7.68 µg/mL); MIC ([5]; ATCC 29213, read-out: MIC in the presence of cations S. aureus ATCC): 2 µM; MBC S. agalactiae [8]: 8.3 µM (≈ 31.9 µg/mL); MIC S. agalactiae [8]: 8.3 µM (≈ 31.9 µg/mL)
